What was measured:
Details in all cases: 72 h
U2OS [1] = assay: drug sensitivity score (DSS) for viability; higher = more toxic; extreme values may be limits of the assay
Caco-2 [2] = assay: as above
HepG2 [3] = assay: as above
Calu-3 [4] = assay: as above
Vero E6 [5] = assay: as above
U2OS [6] = assay: relative viability EC50 (midpoint between 100% and the lowest measured viability); higher = less toxic
Caco-2 [7] = assay: as above
HepG2 [8] = assay: as above
Calu-3 [9] = assay: as above
Vero E6 [10] = assay: as above
U2OS [11] = assay: cell viability relative to DMSO; higher = less toxic
Caco-2 [12] = assay: as above
HepG2 [13] = assay: as above
Calu-3 [14] = assay: as above
Vero E6 [15] = assay: as above

SMILES	drug sensitivity score (U2OS [1])	drug sensitivity score (Caco-2 [2])	drug sensitivity score (HepG2 [3])	drug sensitivity score (Calu-3 [4])	drug sensitivity score (Vero E6 [5])	relative viability EC50 (U2OS [6])	relative viability EC50 (Caco-2 [7])	relative viability EC50 (HepG2 [8])	relative viability EC50 (Calu-3 [9])	relative viability EC50 (Vero E6 [10])	cell viability (U2OS [11]; 1 nM)	cell viability (U2OS [11]; 10 nM)	cell viability (U2OS [11]; 100 nM)	cell viability (U2OS [11]; 1000 nM)	cell viability (U2OS [11]; 10000 nM)	cell viability (Caco-2 [12]; 1 nM)	cell viability (Caco-2 [12]; 10 nM)	cell viability (Caco-2 [12]; 100 nM)	cell viability (Caco-2 [12]; 1000 nM)	cell viability (Caco-2 [12]; 10000 nM)	cell viability (HepG2 [13]; 1 nM)	cell viability (HepG2 [13]; 10 nM)	cell viability (HepG2 [13]; 100 nM)	cell viability (HepG2 [13]; 1000 nM)	cell viability (HepG2 [13]; 10000 nM)	cell viability (Calu-3 [14]; 1 nM)	cell viability (Calu-3 [14]; 10 nM)	cell viability (Calu-3 [14]; 100 nM)	cell viability (Calu-3 [14]; 1000 nM)	cell viability (Calu-3 [14]; 10000 nM)	cell viability (Vero E6 [15]; 1 nM)	cell viability (Vero E6 [15]; 10 nM)	cell viability (Vero E6 [15]; 100 nM)	cell viability (Vero E6 [15]; 1000 nM)	cell viability (Vero E6 [15]; 10000 nM)
Cc1ncc(OC[C@@]2(c3cccc(F)c3)C[C@H]2C(=O)Nc2ccc(F)cn2)c(C)n1 [lemborexant]	0	0	0	0	0	> 10 µM	> 10 µM	> 10 µM	> 10 µM	> 10 µM	100%	100%	96%	101%	98.1%	94.9%	97.5%	89.6%	94.5%	100%	97.1%	103%	97.8%	97.9%	97.3%	100%	100%	97.6%	99.6%	106%	97.4%	98.1%	96.8%	101%	96.2%
CNC(=N)NC(=O)Nc1c(C)cccc1C [lidamidine]	0	0	0	0	0	> 10 µM	> 10 µM	> 10 µM	> 10 µM	> 10 µM	98.6%	100%	97.7%	99.5%	100%	90.4%	99%	91.9%	95.3%	92.5%	101%	89.3%	106%	104%	108%	103%	102%	96.2%	88.7%	104%	99.6%	96%	97.7%	102%	105%
CCn1cc(C(=O)O)c(=O)c2cc(F)c(N3CCNC(C)C3)c(F)c21 (stereo not given) [lomefloxacin]	0	0	0	2.4	0	> 10 µM	> 10 µM	> 10 µM	> 10 µM	> 10 µM	105%	98.3%	102%	104%	104%	107%	103%	108%	91.2%	104%	114%	111%	120%	102%	94.1%	95.8%	96.8%	108%	80.1%	94.6%	105%	103%	98.8%	106%	95.3%
C/C(=C\C(=O)OCCCCCCCCC(=O)O)C[C@@H]1OC[C@H](C[C@@H]2O[C@H]2[C@@H](C)[C@H](C)O)[C@@H](O)[C@H]1O [mupirocin]	0	0	0	0	0	> 10 µM	> 10 µM	> 10 µM	> 10 µM	> 10 µM	104%	99.7%	99.3%	94.7%	99.8%	99.9%	107%	95.2%	98%	102%	104%	100%	100%	100%	92.2%	106%	104%	102%	90.8%	109%	97%	102%	95.4%	97.3%	97.1%
COc1c(C)c2c(c(O)c1C/C=C(\C)CCC(=O)O)C(=O)OC2 [mycophenolic-acid]	8.7	5.8	9	6	6.7	1.03 µM	1.13 µM	0.686 µM	0.814 µM	1.29 µM	98.3%	102%	94.7%	62.6%	21.9%	93.1%	102%	103%	77.5%	47%	101%	95.7%	95.2%	57.5%	31.8%	96.3%	96.2%	97.2%	71.3%	49.5%	96.1%	103%	96.2%	75.2%	34.2%
C=C1CC[C@@]2(O)[C@H]3Cc4ccc(O)c5c4[C@@]2(CCN3CC2CC2)[C@H]1O5 [nalmefene]	0	0	0	0	0	> 10 µM	> 10 µM	> 10 µM	> 10 µM	> 10 µM	95.6%	98.6%	93.7%	99.4%	106%	95.5%	94.6%	93.8%	102%	99.3%	102%	95.3%	110%	95.1%	113%	96.6%	97.5%	106%	88.6%	103%	106%	96.9%	96.8%	98.3%	107%
CC(C)(C)NCc1cc(Nc2ccnc3cc(Cl)ccc23)c2c(c1O)CCCC2 [naphthoquine-phosphate]	0	0.4	0	0	0	> 10 µM	> 10 µM	> 10 µM	> 10 µM	> 10 µM	96.3%	96.6%	103%	95.9%	98.1%	108%	99.7%	98.5%	99.6%	83%	106%	106%	106%	99.6%	98.6%	96.3%	98%	101%	91%	109%	106%	110%	108%	99.3%	93.5%
